25 compounds from ChEMBL document CHEMBL3739262, “Flavones Inhibit the Activity of AKR1B10, a Promising Therapeutic Target for Cancer Treatment” (J Nat Prod, 2015) can be followed below.

Test [1] addresses T1, Aldo-keto reductase family 1 member B10 (Homo sapiens, UniProt O60218). In words: Inhibition of recombinant human N-terminal His6-tagged AKR1B10 expressed in Escherichia coli BL21 cells using all-trans-retinal as substrate at 20 uM incubated for 15 mins by HPLC method.
Target sequence in this assay (O60218 whole entry, looked up): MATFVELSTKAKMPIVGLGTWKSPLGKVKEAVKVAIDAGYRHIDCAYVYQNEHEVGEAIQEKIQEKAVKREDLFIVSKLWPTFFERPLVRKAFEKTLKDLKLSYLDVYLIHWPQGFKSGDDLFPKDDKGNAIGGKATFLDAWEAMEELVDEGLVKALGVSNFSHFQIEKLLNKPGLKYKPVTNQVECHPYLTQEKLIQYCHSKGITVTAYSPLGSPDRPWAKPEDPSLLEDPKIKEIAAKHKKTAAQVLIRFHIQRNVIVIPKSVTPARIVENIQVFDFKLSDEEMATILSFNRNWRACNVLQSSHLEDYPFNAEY
In test [2] the target is T1, Aldo-keto reductase family 1 member B10. In words: Non-competitive inhibition of recombinant human N-terminal His6-tagged AKR1B10 expressed in Escherichia coli BL21 cells using all-trans-retinal as substrate incubated for 15 mins by Lineweaver-Burk plot analysis.
Target sequence in this assay (O60218 whole entry): as the sequence (O60218 whole entry, looked up) above
Test [3] has the same target. In words: Inhibition of recombinant human AKR1B10 expressed in human HCT116 cells assessed as reduction in daunorubicinol production using daunorubicin as substrate at 10 uM incubated for 4 to 8 hrs by UHPLC based transient transfection assay. Format: cell-based. Conditions: HCT-116.
Target sequence in this assay (O60218 whole entry, looked up): as above
Test [4] shares this target. In words: Inhibition of recombinant human N-terminal His6-tagged AKR1B10 expressed in Escherichia coli BL21 cells using daunorubicin as substrate incubated for 20 mins by UHPLC method.
Target sequence in this assay (O60218 whole entry): as the sequence (O60218 whole entry, looked up) above
Test [5] can be described thus: Cytotoxicity against human HCT116 cells assessed as cell viability after 72 hrs by MTT assay. Format: cell-based. Conditions: HCT-116, 72 h.
The target of test [6] is T1, Aldo-keto reductase family 1 member B10. In words: Potency index, ratio of IC50 for flufenamic acid to IC50 for text compound for inhibition of recombinant human N-terminal His6-tagged AKR1B10 expressed in Escherichia coli BL21 cells using all-trans-retinal as substrate incubated for 15 mins by HPLC method.
Target sequence in this assay (O60218 whole entry, looked up): as above
The target is the same in test [7]. In words: Inhibition of recombinant human N-terminal His6-tagged AKR1B10 expressed in Escherichia coli BL21 cells using all-trans-retinal as substrate incubated for 15 mins by HPLC method.
Target sequence in this assay (O60218 whole entry): as the sequence (O60218 whole entry, looked up) above
For test [8], the target named is Aldo-keto reductase family 1 member B1 (Homo sapiens, UniProt P15121). In words: Inhibition of recombinant N-terminal His6-tagged AKR1B1 (unknown origin) expressed in Escherichia coli BL21 cells using all-trans-retinal as substrate incubated for 15 mins by HPLC method.
Test [9] deals with T1, Aldo-keto reductase family 1 member B10. In words: Inhibition of recombinant human AKR1B10 expressed in human HCT116 cells assessed as reduction in daunorubicinol production using daunorubicin as substrate at 20 uM incubated for 4 to 8 hrs by UHPLC based transient transfection assay. Format: cell-based. To be noted: HCT-116.
Target sequence in this assay (O60218 whole entry, looked up): as above
For test [10] the target is unchanged. In words: Inhibition of recombinant human AKR1B10 expressed in human HCT116 cells assessed as reduction in daunorubicinol production using daunorubicin as substrate incubated for 4 to 8 hrs by UHPLC based transient transfection assay. Format: cell-based. Conditions: HCT-116.
Target sequence in this assay (O60218 whole entry, looked up): as above

Each structure is given as a SMILES string. Activity calls are given as the source filed them. The rule behind the calls is not given here.

By inhibition is commonly meant the percentage by which the read-out fell short of the control. As for `O=c1c(O)c(-c2ccccc2)oc2ccccc12`, in test [1], the inhibition result was “Active”.

As for `O=c1c(O)c(-c2ccc(O)cc2O)oc2cc(O)cc(O)c12`, the inhibition result in [1] is “Active”.

For the compound `O=C(O)c1ccc(O)cc1`, in test [1], the inhibition result was “Active”.

A word on the Ki: it is the equilibrium dissociation constant of an inhibitor or competing ligand from its target. Broadly, the IC50 is the concentration that gives 50% inhibition. One may read the EC50 as the concentration that produces a half-maximal response. Regarding `O=c1cc(-c2ccc(O)cc2)oc2cc(O)cc(O)c12` [APIGENIN], in [2], the Ki came out at 6 µM. The inhibition in [3] was determined as 25%; in test [9] it was 34%. Also, the IC50 was 37.1 µM in test [4], 6.6 µM in test [7] and 11.9 µM in [8]. For the same compound, the half-maximal effective concentration (EC50) in test [5] came to 23.8 µM. The Ratio IC50 in test [6] came to 10. In test [1], the inhibition result is “Active”.

For the compound `O=C(O)/C=C/c1ccc(O)c(O)c1`, the inhibition entry in test [1] was “Active”.

As for `COc1ccc(-c2coc3cc(O)cc(O)c3c2=O)cc1` [BIOCHANIN], the 50% inhibitory concentration (IC50) in test [7] stood at 36.1 µM; in [8], 127 µM. Besides, the inhibition result in test [1] is “Active”.

Turning to `O=C1CC(c2ccc(O)cc2)Oc2ccccc21` (stereo unspecified), the inhibition entry in test [1] was “Active”.

Regarding `C[C@@H]1O[C@@H](Oc2c(-c3ccc(O)c(O)c3)oc3cc(O)cc(O)c3c2=O)[C@H](O)[C@H](O)[C@H]1O`, the inhibition result in [1] is “Active”.

In the case of `O=c1c(O)c(-c2ccc(O)c(O)c2)oc2cc(O)cc(O)c12`, the inhibition in test [3] is 18%; in test [9], 23%. In addition, in test [1], the inhibition entry was “Active”.

Consider `O=C1C[C@@H](c2ccc(O)cc2)Oc2cc(O)cc(O)c21`, for which the inhibition result in test [1] is “Active”.

Consider `Oc1cc(O)c2c(c1)O[C@H](c1ccc(O)c(O)c1)[C@@H](O)C2`, for which, in test [1], the inhibition entry was “Active”.

Consider `O=c1cc(-c2ccc(O)c(O)c2)oc2cc(O)cc(O)c12` [LUTEOLIN], for which the half-inhibitory concentration (IC50) in test [4] is 108 µM; in [7], 9.2 µM. Also, the EC50 in [5] amounted to 26.7 µM. Moreover, the inhibition entry in test [1] was “Active”. Also, the inhibition in test [9] worked out at 33%.

In the case of `C[C@@H]1O[C@@H](OC[C@H]2O[C@@H](Oc3c(-c4ccc(O)c(O)c4)oc4cc(O)cc(O)c4c3=O)[C@H](O)[C@@H](O)[C@@H]2O)[C@H](O)[C@H](O)[C@H]1O`, the inhibition result in test [1] was “Active”.

In the case of `O=c1c(-c2ccc(O)cc2)coc2cc(O)ccc12` [DAIDZEIN], the IC50 in [7] is 32.2 µM; in [8], 162 µM. Besides, the inhibition entry in [1] is “Active”.

Take `COc1cc([C@H]2Oc3cc([C@H]4Oc5cc(O)c(O)cc5C(=O)[C@@H]4O)ccc3O[C@@H]2CO)ccc1O`: the inhibition entry in test [1] is “Active”.

Consider `O=c1cc(-c2ccccc2)oc2cc(O)ccc12` [7-HYDROXYFLAVONE], for which the half-maximal inhibitory concentration (IC50) in [4] is 160 µM; in test [7] it was 8.3 µM; in [8], 12.3 µM. Also, the concentration giving a half-maximal response (EC50) in test [5] was over 50 µM. Further, in test [6], the Ratio IC50 was 10. Moreover, the inhibition entry in test [1] is “Active”. For the same compound, the inhibition in test [9] was found to be 19%.

`O=c1cc(-c2ccccc2)oc2cccc(O)c12`: the inhibition entry in [1] is “Active”.

As to `O=C1CC(c2ccccc2O)Oc2ccccc21` (stereo unspecified), the inhibition result in test [1] is “Active”.

Consider `COc1ccc([C@@H]2CC(=O)c3c(O)cc(O)cc3O2)cc1O`, for which the inhibition result in test [1] is “Active”.

`O=C(/C=C/c1ccc(O)c(O)c1)O[C@@H]1C[C@](O)(C(=O)O)C[C@@H](O)[C@H]1O`: in [1], the inhibition result was “Active”.

Consider `O=c1cc(-c2ccc(O)cc2)oc2c([C@@H]3O[C@H](CO)[C@@H](O)[C@H](O)[C@H]3O)c(O)cc(O)c12`, for which the inhibition result in test [1] was “Active”.

As to `O=C1c2c(O)cc(O)cc2O[C@H](c2ccc(O)c(O)c2)[C@H]1O`, the inhibition result in [1] is “Active”.

Turning to `O=C(CCc1ccc(O)cc1)c1c(O)cc(O)cc1O[C@@H]1O[C@H](CO)[C@@H](O)[C@H](O)[C@H]1O`, in [1], the inhibition entry is “Active”.

On to `O=C(O)c1ccccc1Nc1cccc(C(F)(F)F)c1` [FLUFENAMIC ACID], for which the IC50 in [7] amounted to 96 µM. Besides, the inhibition result in test [10] is “inactive”. Also, the inhibition result in test [1] was “Active”.

For `O=C(O[C@@H]1Cc2c(O)cc(O)cc2O[C@@H]1c1cc(O)c(O)c(O)c1)c1cc(O)c(O)c(O)c1`, the inhibition result in [1] is “Active”.
